# Reference: PubChem BioAssay (NCI)
#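 Values below derive from 48-hour exposures of cells grown in 96-well plates, with endpoints linearly interpolated between the two concentrations bracketing the appropriate inhibition level. The concentration for full growth arrest is given as TGI.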
# How the values were obtained:
# Experiment in all cases: NCI-60 cell line screen, 48 h
# MDA-MB-231 breast = system: MDA-MB-231 breast
# LOX IMVI melanoma = system: LOX IMVI melanoma
# U251 CNS = system: U251 CNS
# NCI-H460 lung = system: NCI-H460 lung
# UACC-257 melanoma = system: UACC-257 melanoma
# PC-3 prostate = system: PC-3 prostate
# COLO 205 colon = system: COLO 205 colon
# SK-MEL-5 melanoma = system: SK-MEL-5 melanoma
# OVCAR-5 ovarian = system: OVCAR-5 ovarian
# HT29 colon = system: HT29 colon
# NCI-H23 lung = system: NCI-H23 lung
# UO-31 renal = system: UO-31 renal
# HL-60(TB) leukemia = system: HL-60(TB) leukemia
# SK-MEL-28 melanoma = system: SK-MEL-28 melanoma
# A549 NSCLC = system: A549 NSCLC
# SK-OV-3 ovarian = system: SK-OV-3 ovarian
# HOP-62 NSCLC = system: HOP-62 NSCLC
# EKVX NSCLC = system: EKVX NSCLC
# DU-145 prostate = system: DU-145 prostate
# SK-MEL-2 melanoma = system: SK-MEL-2 melanoma
# OVCAR-8 ovarian = system: OVCAR-8 ovarian
# SF-539 CNS = system: SF-539 CNS
# MALME-3M melanoma = system: MALME-3M melanoma
# T-47D breast = system: T-47D breast
# 786-0 renal = system: 786-0 renal
# HS 578T breast = system: HS 578T breast
# SW-620 colon = system: SW-620 colon
# NCI-H226 lung = system: NCI-H226 lung
# SN12C renal = system: SN12C renal
# MDA-MB-435 = system: MDA-MB-435
# IGROV1 ovarian = system: IGROV1 ovarian
# SF-268 CNS = system: SF-268 CNS
# HCT-15 colon = system: HCT-15 colon
# M14 melanoma = system: M14 melanoma
# MOLT-4 leukemia = system: MOLT-4 leukemia
# HOP-92 NSCLC = system: HOP-92 NSCLC
# TK-10 renal = system: TK-10 renal
# K-562 leukemia = system: K-562 leukemia
# SF-295 CNS = system: SF-295 CNS
# CAKI-1 renal = system: CAKI-1 renal
# OVCAR-3 ovarian = system: OVCAR-3 ovarian
# SR leukemia = system: SR leukemia
# NCI-H522 lung = system: NCI-H522 lung
# ACHN renal = system: ACHN renal
# BT-549 breast = system: BT-549 breast
# RXF 393 renal = system: RXF 393 renal
# HCT-116 colon = system: HCT-116 colon
# RPMI-8226 leukemia = system: RPMI-8226 leukemia
# OVCAR-4 ovarian = system: OVCAR-4 ovarian
# KM12 colon = system: KM12 colon
# SNB-19 CNS = system: SNB-19 CNS
# NCI/ADR-RES ovarian = system: NCI/ADR-RES ovarian
# CCRF-CEM leukemia = system: CCRF-CEM leukemia
# SNB-75 CNS = system: SNB-75 CNS
# MDA-N = system: MDA-N
# MCF7 breast = system: MCF7 breast
# UACC-62 melanoma = system: UACC-62 melanoma
# HCC-2998 colon = system: HCC-2998 colon
# A498 renal = system: A498 renal
structure (smiles),measurement,setting,value
Fc1cc(-c2cc(-c3ccccc3)n[nH]2)c(Cl)cc1Cl,TGI,MDA-MB-231 breast,> 100 µM
same,TGI,LOX IMVI melanoma,> 100 µM
same,TGI,U251 CNS,> 100 µM
same,TGI,NCI-H460 lung,> 100 µM
same,TGI,UACC-257 melanoma,> 100 µM
same,TGI,PC-3 prostate,> 100 µM
same,TGI,COLO 205 colon,> 100 µM
same,TGI,SK-MEL-5 melanoma,> 100 µM
same,TGI,OVCAR-5 ovarian,> 100 µM
same,TGI,HT29 colon,> 100 µM
same,TGI,NCI-H23 lung,> 100 µM
same,TGI,UO-31 renal,> 100 µM
same,TGI,HL-60(TB) leukemia,> 100 µM
same,TGI,SK-MEL-28 melanoma,> 100 µM
same,TGI,A549 NSCLC,> 100 µM
same,TGI,SK-OV-3 ovarian,> 100 µM
same,TGI,HOP-62 NSCLC,> 100 µM
same,TGI,EKVX NSCLC,> 100 µM
same,TGI,DU-145 prostate,> 100 µM
same,TGI,SK-MEL-2 melanoma,> 100 µM
same,TGI,OVCAR-8 ovarian,> 100 µM
same,TGI,SF-539 CNS,60.7 µM
same,TGI,MALME-3M melanoma,> 100 µM
same,TGI,T-47D breast,> 100 µM
same,TGI,786-0 renal,> 100 µM
same,TGI,HS 578T breast,> 100 µM
same,TGI,SW-620 colon,> 100 µM
same,TGI,NCI-H226 lung,> 100 µM
same,TGI,SN12C renal,> 100 µM
same,TGI,MDA-MB-435,> 100 µM
same,TGI,IGROV1 ovarian,> 100 µM
same,TGI,SF-268 CNS,> 100 µM
same,TGI,HCT-15 colon,> 100 µM
same,TGI,M14 melanoma,> 100 µM
same,TGI,MOLT-4 leukemia,57.6 µM
same,TGI,HOP-92 NSCLC,> 100 µM
same,TGI,TK-10 renal,> 100 µM
same,TGI,K-562 leukemia,23.2 µM
same,TGI,SF-295 CNS,> 100 µM
same,TGI,CAKI-1 renal,> 100 µM
same,TGI,OVCAR-3 ovarian,> 100 µM
same,TGI,SR leukemia,> 100 µM
same,TGI,NCI-H522 lung,> 100 µM
same,TGI,ACHN renal,> 100 µM
same,TGI,BT-549 breast,> 100 µM
same,TGI,RXF 393 renal,> 100 µM
same,TGI,HCT-116 colon,> 100 µM
same,TGI,RPMI-8226 leukemia,> 100 µM
same,TGI,OVCAR-4 ovarian,> 100 µM
same,TGI,KM12 colon,> 100 µM
same,TGI,SNB-19 CNS,> 100 µM
same,TGI,NCI/ADR-RES ovarian,> 100 µM
same,TGI,CCRF-CEM leukemia,> 100 µM
same,TGI,SNB-75 CNS,> 100 µM
same,TGI,MDA-N,> 100 µM
COc1ccc(NS(=O)c2ccc(Cl)cc2)cc1 (stereo not given),TGI,MDA-MB-231 breast,> 100 µM
same,TGI,LOX IMVI melanoma,> 100 µM
same,TGI,U251 CNS,54.2 µM
same,TGI,NCI-H460 lung,> 100 µM
same,TGI,UACC-257 melanoma,> 100 µM
same,TGI,COLO 205 colon,> 100 µM
same,TGI,SK-MEL-5 melanoma,> 100 µM
same,TGI,HT29 colon,> 100 µM
same,TGI,NCI-H23 lung,> 100 µM
same,TGI,UO-31 renal,42.4 µM
same,TGI,HL-60(TB) leukemia,> 100 µM
same,TGI,SK-MEL-28 melanoma,> 100 µM
same,TGI,A549 NSCLC,> 100 µM
same,TGI,HOP-62 NSCLC,> 100 µM
same,TGI,EKVX NSCLC,> 100 µM
same,TGI,DU-145 prostate,> 100 µM
same,TGI,SK-MEL-2 melanoma,70 µM
same,TGI,MCF7 breast,> 100 µM
same,TGI,OVCAR-8 ovarian,> 100 µM
same,TGI,SF-539 CNS,30 µM
same,TGI,MALME-3M melanoma,60 µM
same,TGI,T-47D breast,41.2 µM
same,TGI,786-0 renal,> 100 µM
same,TGI,HS 578T breast,> 100 µM
same,TGI,SW-620 colon,> 100 µM
same,TGI,NCI-H226 lung,81.1 µM
same,TGI,SN12C renal,> 100 µM
same,TGI,UACC-62 melanoma,39.9 µM
same,TGI,MDA-MB-435,76.1 µM
same,TGI,IGROV1 ovarian,> 100 µM
same,TGI,SF-268 CNS,39.2 µM
same,TGI,HCT-15 colon,> 100 µM
same,TGI,M14 melanoma,> 100 µM
same,TGI,HCC-2998 colon,> 100 µM
same,TGI,MOLT-4 leukemia,> 100 µM
same,TGI,TK-10 renal,> 100 µM
same,TGI,K-562 leukemia,> 100 µM
same,TGI,SF-295 CNS,> 100 µM
same,TGI,OVCAR-3 ovarian,> 100 µM
same,TGI,SR leukemia,> 100 µM
same,TGI,NCI-H522 lung,> 100 µM
same,TGI,ACHN renal,> 100 µM
same,TGI,BT-549 breast,63.9 µM
same,TGI,HCT-116 colon,> 100 µM
same,TGI,RPMI-8226 leukemia,> 100 µM
same,TGI,OVCAR-4 ovarian,> 100 µM
same,TGI,KM12 colon,23.8 µM
same,TGI,SNB-19 CNS,> 100 µM
same,TGI,NCI/ADR-RES ovarian,> 100 µM
same,TGI,CCRF-CEM leukemia,> 100 µM
same,TGI,MDA-N,> 100 µM
Brc1sc(Br)c2c1[C@H](Br)C[C@@H]2Br,TGI,MDA-MB-231 breast,> 100 µM
same,TGI,A498 renal,> 100 µM
same,TGI,LOX IMVI melanoma,43.8 µM
same,TGI,U251 CNS,> 100 µM
same,TGI,NCI-H460 lung,> 100 µM
same,TGI,UACC-257 melanoma,> 100 µM
same,TGI,COLO 205 colon,> 100 µM
same,TGI,SK-MEL-5 melanoma,> 100 µM
same,TGI,OVCAR-5 ovarian,> 100 µM
same,TGI,HT29 colon,> 100 µM
same,TGI,NCI-H23 lung,51.1 µM
same,TGI,UO-31 renal,45.8 µM
same,TGI,HL-60(TB) leukemia,75.2 µM
same,TGI,SK-MEL-28 melanoma,> 100 µM
same,TGI,A549 NSCLC,> 100 µM
same,TGI,SK-OV-3 ovarian,> 100 µM
same,TGI,HOP-62 NSCLC,> 100 µM
same,TGI,EKVX NSCLC,> 100 µM
same,TGI,DU-145 prostate,61.2 µM
same,TGI,SK-MEL-2 melanoma,56 µM
same,TGI,MCF7 breast,98.5 µM
same,TGI,OVCAR-8 ovarian,57.2 µM
same,TGI,SF-539 CNS,44.5 µM
same,TGI,MALME-3M melanoma,63.2 µM
same,TGI,T-47D breast,> 100 µM
same,TGI,786-0 renal,> 100 µM
same,TGI,HS 578T breast,77.1 µM
same,TGI,SW-620 colon,> 100 µM
same,TGI,NCI-H226 lung,59.2 µM
same,TGI,SN12C renal,> 100 µM
same,TGI,UACC-62 melanoma,88 µM
same,TGI,MDA-MB-435,> 100 µM
same,TGI,IGROV1 ovarian,> 100 µM
same,TGI,SF-268 CNS,53.4 µM
same,TGI,HCT-15 colon,> 100 µM
same,TGI,M14 melanoma,> 100 µM
same,TGI,MOLT-4 leukemia,95.5 µM
same,TGI,HOP-92 NSCLC,61.5 µM
same,TGI,TK-10 renal,> 100 µM
same,TGI,K-562 leukemia,> 100 µM
same,TGI,CAKI-1 renal,> 100 µM
same,TGI,OVCAR-3 ovarian,> 100 µM
same,TGI,SR leukemia,97.7 µM
same,TGI,NCI-H522 lung,34.2 µM
same,TGI,ACHN renal,97.9 µM
same,TGI,BT-549 breast,79 µM
same,TGI,RXF 393 renal,10.4 µM
same,TGI,HCT-116 colon,> 100 µM
same,TGI,OVCAR-4 ovarian,44.9 µM
same,TGI,KM12 colon,> 100 µM
same,TGI,NCI/ADR-RES ovarian,63.9 µM
same,TGI,CCRF-CEM leukemia,> 100 µM
same,TGI,SNB-75 CNS,85.3 µM
same,TGI,MDA-N,> 100 µM
